Data as given in PubChem BioAssay AID2060620 (Molecular Pharmacology Branch, DTP, NCI, 2025).

System: 328373-195-R-J1-PDC complex spheroids, viability % test/control
Assay: Anticancer human tumor 328373-195-R-J1-PDC patient-derived head and neck squamous carcinoma cell line growth inhibition [CLK]
Conditions: for IC50: curve of first compound; for viability, T/C: stronger effect = lower value
Outline: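 Patient-derived tumor cells grown as complex spheroids with HUVEC endothelial cells and mesenchymal stem cells, treated with drug combinations. Concentrations descend in half-log steps from near clinical Cmax, or from 10 microM if Cmax unknown.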

[1] = second compound 0.0316 µM, first compound 0.0316 µM
[2] = second compound 0.0316 µM, first compound 0.1 µM
[3] = second compound 0.0316 µM, first compound 0.316 µM
[4] = second compound 0.0316 µM, first compound 1 µM
[5] = second compound 0.0316 µM, first compound 3.16 µM
[6] = second compound 0.0316 µM, first compound 10 µM
[7] = second compound 0.1 µM, first compound 0.0316 µM
[8] = second compound 0.1 µM, first compound 0.1 µM
[9] = second compound 0.1 µM, first compound 0.316 µM
[10] = second compound 0.1 µM, first compound 1 µM
[11] = second compound 0.1 µM, first compound 3.16 µM
[12] = second compound 0.1 µM, first compound 10 µM
[13] = second compound 0.316 µM, first compound 0.0316 µM
[14] = second compound 0.316 µM, first compound 0.1 µM
[15] = second compound 0.316 µM, first compound 0.316 µM
[16] = second compound 0.316 µM, first compound 1 µM
[17] = second compound 0.316 µM, first compound 3.16 µM
[18] = second compound 0.316 µM, first compound 10 µM
[19] = second compound 1 µM, first compound 0.0316 µM
[20] = second compound 1 µM, first compound 0.1 µM
[21] = second compound 1 µM, first compound 0.316 µM
[22] = second compound 1 µM, first compound 1 µM
[23] = second compound 1 µM, first compound 3.16 µM
[24] = second compound 1 µM, first compound 10 µM
[25] = second compound 3.16 µM, first compound 0.0316 µM
[26] = second compound 3.16 µM, first compound 0.1 µM
[27] = second compound 3.16 µM, first compound 0.316 µM
[28] = second compound 3.16 µM, first compound 1 µM
[29] = second compound 3.16 µM, first compound 3.16 µM
[30] = second compound 3.16 µM, first compound 10 µM
[31] = second compound 10 µM, first compound 0.0316 µM
[32] = second compound 10 µM, first compound 0.1 µM
[33] = second compound 10 µM, first compound 0.316 µM
[34] = second compound 10 µM, first compound 1 µM
[35] = second compound 10 µM, first compound 3.16 µM
[36] = second compound 10 µM, first compound 10 µM
[37] = second compound 0.0316 µM, first compound 0.00316 µM
[38] = second compound 0.0316 µM, first compound 0.01 µM
[39] = second compound 0.1 µM, first compound 0.00316 µM
[40] = second compound 0.1 µM, first compound 0.01 µM
[41] = second compound 0.316 µM, first compound 0.00316 µM
[42] = second compound 0.316 µM, first compound 0.01 µM
[43] = second compound 1 µM, first compound 0.00316 µM
[44] = second compound 1 µM, first compound 0.01 µM
[45] = second compound 3.16 µM, first compound 0.00316 µM
[46] = second compound 3.16 µM, first compound 0.01 µM
[47] = second compound 10 µM, first compound 0.00316 µM
[48] = second compound 10 µM, first compound 0.01 µM
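Also: spheroids exposed to the agents for 7 days.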

CC(CO)NC(=O)c1cc(-c2ccc(Cl)cc2)nn(-c2cnn(C)c2)c1=O (stereo not drawn) + CNC(=O)c1ccc(Nc2nc(OC3CCCC3)c3c(-c4ccc5nc(C)oc5c4)c[nH]c3n2)c(OC)c1
IC50 (second compound 0.0316 µM): > 10000 nM | IC50 (second compound 0.1 µM): < 31.6 nM | IC50 (second compound 0.316 µM): < 31.6 nM | IC50 (second compound 1 µM): < 31.6 nM | IC50 (second compound 3.16 µM): < 31.6 nM | IC50 (second compound 10 µM): < 31.6 nM | viability, T/C [1]: 76.2% | viability, T/C [2]: 80.8% | viability, T/C [3]: 73% | viability, T/C [4]: 90.8% | viability, T/C [5]: 73.6% | viability, T/C [6]: 62.9% | viability, T/C [7]: 16.1% | viability, T/C [8]: 12.2% | viability, T/C [9]: 11.9% | viability, T/C [10]: 14.1% | viability, T/C [11]: 16.1% | viability, T/C [12]: 12.8% | viability, T/C [13]: 10.9% | viability, T/C [14]: 10.5% | viability, T/C [15]: 11.2% | viability, T/C [16]: 11.8% | viability, T/C [17]: 11.4% | viability, T/C [18]: 12% | viability, T/C [19]: 8.66% | viability, T/C [20]: 9.73% | viability, T/C [21]: 9.96% | viability, T/C [22]: 10.2% | viability, T/C [23]: 9.14% | viability, T/C [24]: 8.61% | viability, T/C [25]: 13.6% | viability, T/C [26]: 10.9% | viability, T/C [27]: 8.97% | viability, T/C [28]: 10.1% | viability, T/C [29]: 12.7% | viability, T/C [30]: 10.7% | viability, T/C [31]: 12.9% | viability, T/C [32]: 9.53% | viability, T/C [33]: 11.4% | viability, T/C [34]: 12.1% | viability, T/C [35]: 13.2% | viability, T/C [36]: 11.7%

CC(Nc1ccc2c(c1)OCCn1cc(N3C(=O)OCC3C(F)F)nc1-2)C(N)=O (stereo not drawn) + CNC(=O)c1ccc(Nc2nc(OC3CCCC3)c3c(-c4ccc5nc(C)oc5c4)c[nH]c3n2)c(OC)c1
IC50 (second compound 0.0316 µM): 5300 nM | IC50 (second compound 0.1 µM): < 31.6 nM | IC50 (second compound 0.316 µM): < 31.6 nM | IC50 (second compound 1 µM): < 31.6 nM | IC50 (second compound 3.16 µM): < 31.6 nM | IC50 (second compound 10 µM): < 31.6 nM | viability, T/C [1]: 64.5% | viability, T/C [2]: 63% | viability, T/C [3]: 56.1% | viability, T/C [4]: 61.7% | viability, T/C [5]: 57% | viability, T/C [6]: 41.6% | viability, T/C [7]: 12.4% | viability, T/C [8]: 12.9% | viability, T/C [9]: 11.3% | viability, T/C [10]: 13.8% | viability, T/C [11]: 10.4% | viability, T/C [12]: 10.2% | viability, T/C [13]: 10.3% | viability, T/C [14]: 11% | viability, T/C [15]: 12.6% | viability, T/C [16]: 9.39% | viability, T/C [17]: 9.16% | viability, T/C [18]: 11.8% | viability, T/C [19]: 12% | viability, T/C [20]: 10.1% | viability, T/C [21]: 9.86% | viability, T/C [22]: 10.9% | viability, T/C [23]: 10.3% | viability, T/C [24]: 10.2% | viability, T/C [25]: 11.7% | viability, T/C [26]: 11% | viability, T/C [27]: 11.4% | viability, T/C [28]: 8.89% | viability, T/C [29]: 13.5% | viability, T/C [30]: 8.5% | viability, T/C [31]: 11.8% | viability, T/C [32]: 11.6% | viability, T/C [33]: 10.7% | viability, T/C [34]: 11.9% | viability, T/C [35]: 13.7% | viability, T/C [36]: 11%

CCN1CCN(Cc2ccc(Nc3ncc(F)c(-c4cc(F)c5nc(C)n(C(C)C)c5c4)n3)nc2)CC1 + CNC(=O)c1ccc(Nc2nc(OC3CCCC3)c3c(-c4ccc5nc(C)oc5c4)c[nH]c3n2)c(OC)c1
IC50 (second compound 0.0316 µM): 54.9 nM | IC50 (second compound 0.1 µM): < 3.16 nM | IC50 (second compound 0.316 µM): < 3.16 nM | IC50 (second compound 1 µM): < 3.16 nM | IC50 (second compound 3.16 µM): < 3.16 nM | IC50 (second compound 10 µM): < 3.16 nM | viability, T/C [37]: 53.3% | viability, T/C [38]: 60.8% | viability, T/C [1]: 46.3% | viability, T/C [2]: 48.5% | viability, T/C [3]: 44.6% | viability, T/C [4]: 36.1% | viability, T/C [39]: 12.7% | viability, T/C [40]: 11.1% | viability, T/C [7]: 13.1% | viability, T/C [8]: 13.4% | viability, T/C [9]: 15.7% | viability, T/C [10]: 19.4% | viability, T/C [41]: 11.2% | viability, T/C [42]: 11.9% | viability, T/C [13]: 11.8% | viability, T/C [14]: 12.6% | viability, T/C [15]: 17.2% | viability, T/C [16]: 14.6% | viability, T/C [43]: 9.58% | viability, T/C [44]: 12% | viability, T/C [19]: 12.7% | viability, T/C [20]: 12.3% | viability, T/C [21]: 14.1% | viability, T/C [22]: 15.2% | viability, T/C [45]: 12% | viability, T/C [46]: 10.5% | viability, T/C [25]: 12.8% | viability, T/C [26]: 15% | viability, T/C [27]: 15.9% | viability, T/C [28]: 16.7% | viability, T/C [47]: 14.5% | viability, T/C [48]: 11.4% | viability, T/C [31]: 15.1% | viability, T/C [32]: 15.1% | viability, T/C [33]: 17.6% | viability, T/C [34]: 13.1%

COc1c(OCCCN2CCOCC2)ccc2c3n(c(=NC(=O)c4cnc(N)nc4)nc12)CCN3 + CNC(=O)c1ccc(Nc2nc(OC3CCCC3)c3c(-c4ccc5nc(C)oc5c4)c[nH]c3n2)c(OC)c1
IC50 (second compound 0.0316 µM): 141 nM | IC50 (second compound 0.1 µM): < 3.16 nM | IC50 (second compound 0.316 µM): < 3.16 nM | IC50 (second compound 1 µM): < 3.16 nM | IC50 (second compound 3.16 µM): < 3.16 nM | IC50 (second compound 10 µM): < 3.16 nM | viability, T/C [37]: 68.3% | viability, T/C [38]: 67.3% | viability, T/C [1]: 68.2% | viability, T/C [2]: 60.7% | viability, T/C [3]: 24.9% | viability, T/C [4]: 8.91% | viability, T/C [39]: 10.9% | viability, T/C [40]: 12.2% | viability, T/C [7]: 11.8% | viability, T/C [8]: 12.3% | viability, T/C [9]: 7.7% | viability, T/C [10]: 6.41% | viability, T/C [41]: 10.6% | viability, T/C [42]: 11.2% | viability, T/C [13]: 10% | viability, T/C [14]: 9.38% | viability, T/C [15]: 6.22% | viability, T/C [16]: 5.91% | viability, T/C [43]: 9.61% | viability, T/C [44]: 10.8% | viability, T/C [19]: 10.5% | viability, T/C [20]: 9.83% | viability, T/C [21]: 7.75% | viability, T/C [22]: 4.65% | viability, T/C [45]: 9.58% | viability, T/C [46]: 11.5% | viability, T/C [25]: 10.6% | viability, T/C [26]: 9.71% | viability, T/C [27]: 8.29% | viability, T/C [28]: 7.29% | viability, T/C [47]: 12.8% | viability, T/C [48]: 11% | viability, T/C [31]: 13.6% | viability, T/C [32]: 11.9% | viability, T/C [33]: 8.72% | viability, T/C [34]: 5.52%
